Reference: US8809290B2 (priority 2002, dated 2014)
No end group written: not given here.

Legend:
[1] = system: T cell immunity to MHC class I-restricted peptides R10K and SIINFEKL; set-up: species or system BALB/c mice; C57BL/6 mice; conditions: mouse, in vivo
CD 11b+ APC = type: binding, C57 BL/6 mice
[2] = system: chemokine gene-expression; set-up: species or system mice; conditions: mouse, in vivo
antibodies against hIgG = system: antibodies against hIgG; set-up: species or system C57BL/6 mice; conditions: mouse, in vivo, iv
[3] = system: Human THP-1 monocytic cells; type: binding
[4] = system: SP2/0 cells expressing IgNP; set-up: species or system Balb/c mice; conditions: mouse, in vivo
[5] = mouse, in vivo, iv

For Polyadenylic-Polyuridylic Acid [pA:pU], the “T cell immunity to MHC class I-restricted peptides (IFN-γ, IL-4 SFC/spleen)” value [1] was “able to promote increased T cell immunity to different MHC class I-restricted peptides”, the “receptor binding on APC (competition with tagged pA:pU)” value (CD 11b+ APC) was “bind to different cellular receptors” and the “chemokine expression in pulmonary tissue” value [2] was “trigger expression of a wide range of chemokines”. For the same substance, the “prevention of high zone tolerance (anti-hIgG endpoint titers)” value (antibodies against hIgG) was “largely prevent high zone tolerance”, the “competition of binding of tagged pA:pU to THP-1 cells” value [3] was “able to compete out the binding of tagged pA:pU” and the “outcome of tumor-bearing mice” value [4] was “succumbed to disease”.

With SFERFEIFPKE [HA peptide] the “detection of epitope in the blood as function of time post-injection” value [5] was “not detected in the periphery”.
